# Assays:
# [1] = molecular target: T1, human DOR (delta opioid receptor) (Homo sapiens, UniProt P41143); test: […]-GTPgammaS coupling, membranes; type: biochemical; details: antagonist mode against SNC80 curve; 30 °C, 1 h, 40 uM GDP; proposed covalent / irreversible
# T1 construct: gene OPRD1; full-length receptor expressed in CHO-K1 cells
# [2] = molecular target: T1, human DOR (delta opioid receptor); test: competition radioligand binding, 3H-diprenorphine, membranes
# [3] = molecular target: T2, human kappa opioid receptor (KOR) (Homo sapiens, UniProt P41145); test: as above
# T2 construct: gene OPRK1; full-length receptor expressed in CHO cells; membranes
# [4] = molecular target: T1, human DOR (delta opioid receptor); test: cAMP accumulation, live DOR-CHO cells; type: cell-based
# [5] = molecular target: T3, human mu opioid receptor (MOR) (Homo sapiens, UniProt P35372); test: competition radioligand binding, 3H-diprenorphine, membranes; details: room temperature, 1 h, one-site fit; unreliable
# T3 construct: gene OPRM1; full-length receptor expressed in CHO cells; membranes
SMILES,% SNC80 efficacy (EMAX) at 1 nM [1],Ki [2],Ki [3],EC50 [4],KI [5]
"Oc1ccc2c3c1O[C@H]1c4[nH]c5ccc(/C=C/c6ccccn6)cc5c4C[C@@]4(O)[C@@H](C2)N(CC2CC2)CC[C@]314 [SRI-9342, (4bS,8R,8aS,14bR)-7-(Cyclopropylmethyl)-11-((E)-2-(pyridin-2-yl)vinyl)-5,6,7,8,14,14b-hexahydro-4,8-methanobenzofuro [2,3-a]pyrido[4,3-b]carbazole-1,8a(9H)-diol]",84%,,,,
"O=C(C1CC1)N1CC[C@]23c4c5ccc(O)c4O[C@H]2c2ncc(-c4ccc(Cl)cc4)cc2C[C@@]3(O)[C@H]1C5 [SRI-45128, ((4bS,8R,8aS,13bR)-11-(4-Chlorophenyl)-1,8a-dihydroxy-5,6,8,8a,9,13b-hexahydro-7H-4,8-methanobenzofuro[3,2-h]pyrido[3,4-g]quinolin-7-yl)(cyclopropyl)methanone]",,24 ± 2 nM,2500 ± 510 nM,770 nM,"> 3,333 nM"
"O=C(C1CC1)N1CC[C@]23c4c5ccc(O)c4O[C@H]2c2[nH]c4ccccc4c2C[C@@]3(O)[C@H]1C5 [SYK-623, Cyclopropyl((4bS,8R,8aS,14bR)-1,8a-dihydroxy-5,6,8a,9,14,14b-hexahydro-4,8-methanobenzofuro[2,3−a]pyrido [4,3−b]carbazol-7(8H)-yl)methanone]",,11 ± 1 nM,2000 ± 290 nM,265 nM,"> 3,333 nM"

# Reference: publication PMC8587863, “Discovery of Novel Delta Opioid Receptor (DOR) Inverse Agonist and Irreversible (Non-Competitive) Antagonists” (Molecules, 2021)
